Measured values published in patent publication US5830994A, “Peptide derivatives of alpha-MSH and their application” (Institut Europeen De Biologie Cellulaire, priority 1993, dated 1998).

System: PGE2 production by MRC5 fibroblasts stimulated by IL1
Test: PGE2 production by fibroblasts stimulated by IL1 (RIA)
Type: cell-based, human
Conditions: for % inhibition (PGE2) / PGE2: IL1:5 ng
Procedure: 2-1 Culture of embryonic pulmonary fibroplasts [sic] of human origin:
We chose to use the strain ATCC MRC5 maintained in the laboratory continuously and already tested by Cannon et al. (J. Immunol., 1986).
After subculturing, the fibroplasts [sic] are cultured in microwells (24-well plate of 2 cm2, Falcon). The innoculum is 30 000 cells per well; the nutrient medium used is composed of RPMI 1640 (90%) and of complement-free fetal calf serum (FCS, 10%). The medium is changed every two days until the cells become confluent.
The monocell layers thus obtained are washed and preincubated for 24 hours in fresh medium containing only 1% of FCS. […] After incubating for 20 minutes in the presence of these compounds, human recombinant IL1 (Tebu, France) at a concentration of 5, 2.5 or 0.5 ng/ml of medium is placed in contact with cells for 18 hours.
At the end of this incubation, the supernatants are collected and frozen at -80° C. until the analysis is carried out. The monocell layers are fixed with methanol.
The RIA assay is carried out according to the method described by Dray et al. (Europ. J. Invest. 1975). 3 series of experiments, in duplicate, were carried out for each concentration of product studied and for the controls. The results are expressed in pg/μg of DNA. The inhibitory effect is expressed in percentage relative to the controls.
In order to avoid any possible error due to the counting by optical microscopy, the DNA was assayed by a fluorimetric method according to the procedure described by Brunk et al. (Analytical Biochem., 1979).

For “[(DL) Lip] His - D.homoPhe - Arg - Trp - NH2 [PIV]”, the “% inhibition (PGE2)” value (10^-4 M) was 60%, the PGE2 (10^-4 M) was 2964 ± 184 pg/mg of DNA and the “% inhibition (PGE2)” value (10^-5 M) was 38%. For the same substance, the PGE2 (10^-5 M) was 4580 ± 230 pg/mg of DNA, the “% inhibition (PGE2)” value (10^-6 M) was 34% and the PGE2 (10^-6 M) was 4900 ± 340 pg/mg of DNA. For the same substance, the “% inhibition (PGE2)” value (10^-7 M) was 17%, the PGE2 (10^-7 M) was 6150 ± 365 pg/mg of DNA and the “% inhibition (PGE2)” value (10^-8 M) was 17%. The PGE2 (10^-8 M) was 6142 ± 255 pg/mg of DNA, the “% inhibition (PGE2)” value (10^-9 M) was 32% and the PGE2 (10^-9 M) was 5047 ± 279 pg/mg of DNA. For the same substance, the “inhibitory action on IL1-stimulated PGE2 production (in words)” value (overall) was “possess an inhibitory power”.
